Laboratory results: patent US20130172308A1, “ANTIMICROBIAL AGENTS” (John Grant COLLINS, priority 2011, published 2013)

Legend:
[1] = system: Plasmodium falciparum strain D6; experiment: [3H]-hypoxanthine growth inhibition assay; format: cell-based; conditions: Plasmodium falciparum, D6, 96 h
Description: (§1) The in vitro antimalarial activities of two of the dinuclear ruthenium(II) complexes and chloroquine were assessed by exposing P. falciparum strains to ten serially diluted two-fold concentrations of each compound. Parasite growth was measured by uptake of tritiated [^3H]-hypoxanthine into newly synthesised parasitic DNA.
(§2) The [^3H]-hypoxanthine growth inhibition assay (Desjardins et al., 1979 Antimicrobial Agents Chemother 16: 710-718) was used to evaluate the in vitro antimalarial activity of the compounds. Briefly, synchronised parasite cultures (>90% rings, 6 to 8 h post invasion) in [^3H]-RPMI-LPLF complete medium with 0.5% parasitaemia and 2% haematocrit were exposed to the compounds at ten two-fold concentrations, ranging from 10,000 to 20 nM in 96-well microtitre plates. Chloroquine was used as a reference drug. Uninfected RBCs at 2% haematocrit were used as background controls. For the 96 h exposure period, the plates were incubated in the gas mixture at 37° C. for approximately 48 h, followed by the addition of 0.2 μCi of ^3H-hypoxanthine (GE Healthcare, Amersham) in [^3H]-RPMI-1640-LPLF to each well and a further 48 h of incubation and then frozen at −20° C. Plates were thawed and harvested using Tomtech Harvester 96 Mach III and radioactive counts were obtained using Wallac TriLux 1450 Microbeta Liquid Scintillation Counter (Perkin Elmer, USA). All assays were performed in triplicate for each strain and at least on two separate occasions.
(§3) Tritiated hypoxanthine uptake data were analysed in Graphpad Prism V5.0 software (GraphPad Software Inc. USA). The concentrations of the dinuclear ruthenium(II) complexes and chloroquine were transformed into logarithmic values. After subtracting the background values, the data from drug-treated wells were normalised against drug-free control wells. Non-linear regression analysis was carried out of the compound's concentration versus parasitic hypoxanthine incorporation. The in vitro antimalarial activity of the compound is defined as inhibitory concentrations (IC50) and (IC90) that cause 50% and 90% inhibition of parasite growth as determined by measuring [^3H]-hypoxanthine incorporation.

[2] = system: Plasmodium falciparum strain W2; experiment: [3H]-hypoxanthine growth inhibition assay; format: cell-based; conditions: Plasmodium falciparum, W2, 96 h
Description: as §1, §2, §3

[3] = system: S. aureus ATCC 25923; experiment: MIC determination, broth micro-dilution (CAMHB); format: cell-based, Staphylococcus aureus; conditions: Table 1; 37° C., 24 h
Description: (§4) Four strains of bacteria were chosen for the susceptibility tests: S. aureus ATCC 25923; MRSA (a wild clinical strain from the JCU culture collection); E. coli ATCC 25922 and P. aeruginosa ATCC 27853. The bacteria were grown on Mueller Hinton agar (OXOID, cat. No. CM0337) and suspended in growth medium cation-adjusted Mueller Hinton broth (CAMHB, OXOID, cat. No. CM0405). The MIC of each complex was determined in duplicate by standard micro-dilution methodology (British Society for Antimicrobial Chemotherapy Working Party, J. Antimicrob. Chemother., 1991, 27(suppl. D), 22) using gentamicin as the positive control. The ruthenium complexes were dissolved in CAMHB to a stock solution of […] and two-fold diluted in the broth in 96-well plates in a final volume of […] in each well. The same volume […] of bacterial suspension was added in each well making a concentration range of 0.25 mg ml^−1 to 128 mg ml^−1 for each complex. The plates were incubated at 37° C. for 24 h. The results are summarised in Table 1 below, using the following abbreviations: • Rubpm=ΔΔ-[{Ru(phen)2}2(μ-2,2′-bipyrimidine)]Cl4 • Rudppm=ΔΔ-[{Ru(phen)2}2(μ-4,6-bis(2-pyridyl)pyrimidine)]Cl4 • Rubb7trinuclear=Δ*Δ*-[{Ru*(phen)2}(μ-bb7){Ru(phen)}(μ-bb7){Ru*(phen)2}]Cl6 (only the two terminal metal centres are chiral, the two central metal centres are racemic) • Rubb7tetranuclear=Δ*Δ*-[{Ru*(phen)2}(μ-bb7) {Ru(phen)}(μ-bb7){Ru(phen)}(μ-bb7)-{Ru*(phen)2}]Cl8 (only the two terminal metal centres are chiral, the two central metal centres are racemic)
(§5) Further MIC assays and Minimum Bactericidal Concentration (MBC) assays were conducted against Gram-positive and Gram-negative bacterial strains using symmetric and non-symmetric, inert and labile complexes.

[4] = system: MRSA (a wild clinical strain from the JCU culture collection); experiment: MIC determination, broth micro-dilution (CAMHB); format: cell-based, methicillin-resistant S. aureus; conditions: Table 1; 37° C., 24 h
Description: as §4, §5

[5] = system: E. coli ATCC 25922; experiment: MIC determination, broth micro-dilution (CAMHB); format: cell-based, Escherichia coli; conditions: Table 1; 37° C., 24 h
Description: as §4, §5

[6] = system: P. aeruginosa ATCC 27853; experiment: MIC determination, broth micro-dilution (CAMHB); format: cell-based, Pseudomonas aeruginosa; conditions: Table 1; 37° C., 24 h
Description: as §4, §5

[7] = system: S. epidermidis; experiment: Further MIC assays, whole spectrum bacteria (CAMHB); format: cell-based; conditions: Table 3; Broth: CAMHB
Description: (§6) Further MIC assays were conducted against five different bacteria with Rubbn (n=7, 10, 12, 16), two rigid dinuclear species (bridges bpm and dppm) and Gentamicin—Whole spectrum bacteria MIC test results (Broth: CAMHB).

[8] = system: S. typhimurium; experiment: as above; format: cell-based; conditions: Table 3; Broth: CAMHB
Description: as §6

[9] = system: E. faecalis; experiment: as above; format: cell-based; design: unit not given beside the values; conditions: Table 3; Broth: CAMHB
Description: as §6

[10] = system: VRE; experiment: as above; format: cell-based, vancomycin-resistant Enterococcus; conditions: Table 3; Broth: CAMHB
Description: as §6

[11] = system: A. baumanii; experiment: as above; format: cell-based; design: unit not given here; conditions: Table 3; Broth: CAMHB
Description: as §6

[12] = system: human red blood cells; experiment: Haemolytic assay; format: cell-based; conditions: for First indication (>2%) of haemolysis: 24 h incubation with red blood cells
Description: Freshly-drawn human blood was collected using lithium heparin vacuum blood collection tubes (Vacutainer, BD Australia). Erythrocytes were separated by centrifugation for 10 min at 1000 g at 10° C. and washed six times with phosphate-buffered saline (PBS) solution and diluted with PBS to a 10% solution. The concentration of erythrocytes was determined by haemocrit centrifugation (Biofuge Haemo, Heraeus instruments). A 1% Triton-X solution was prepared as the positive control. The complexes to be tested were dissolved in PBS to a stock solution of 2048 mg ml^−1 and two-fold diluted in PBS in round-bottomed 96-well plates in a final volume of […] in each well. […] red blood cell suspension samples were added to the wells making a concentration range from […] to 512 μg ml^−1 for Rubbn (n=10, 12, 16) and 2 μg ml^−1 to 1024 μg ml^−1 for Rubb7, and the plates with each complex were respectively incubated for 1, 2, 4, 8 and 24 h at 37° C. After incubation, the plates were centrifuged at 1000 g for 4 min. […] of supernatant in each well was transferred to a corresponding well in a new 96-well microtitre plate. The absorbance of each well was measured at 540 nm using a plate reader (Mutiskan Ascent, Thermo). Each complex was analysed in duplicate. The solutions of the metal complex at the same tested concentrations without erythrocytes were measured as a negative control.
The extent of haemolysis induced by incubation of the ruthenium complexes for 24 h with freshly-collected human red blood cells is shown in FIG. 1 and summarised in Table 5 below: […]

[13] = system: THP-1 cells; experiment: Cytotoxicity assay (cell count with haemacytometer); format: cell-based, human
Description: Consequently, the toxicity (IC50) against THP-1 cells (a human acute monocytic leukemia cell line and a good model for nucleated eukaryotic cells) was examined (J. […] Human monocytic THP-1 cells were obtained from the American Type Culture Collection (ATCC, Rockville, Md., USA). […] Cells were seeded at a density of 5×10^5 per well in a sterile flat bottom 96-well plate, and incubated with the desired drug concentration in duplicate, to a total volume of […]. The concentration range for all the complexes was between […]. The plates containing each complex were respectively incubated for 24 and 48 h at 37° C. with 5% CO2. After incubation, the concentration of cells in each well was counted with a haemacytometer and IC50 values were calculated and the results are summarise in Table 6 below: […]

[14] = all the tested concentrations, over 24 h

Row | Compound | MIC S. aureus [3] | MIC MRSA [4] | MIC E. coli [5] | MIC P. aeruginosa [6] | MIC S. epidermidis [7] | MIC S. typhimurium [8] | MIC E. faecalis [9] | MIC VRE [10] | MIC A. baumanii [11] | First indication (>2%) of haemolysis [12] | haemolytic activity [12, 14] | IC50 ([13]; 24 h) | IC50 THP-1 ([13]; 24 h) | IC50 ([13]; 48 h) | IC50 THP-1 ([13]; 48 h) | haemolytic activity ([12]; at 10 μM, over 24 h) | other results
1 | CCN(CC)CCCC(C)Nc1ccnc2cc(Cl)ccc12 (centres unmarked) [chloroquine, reference compound] | – | – | – | – | – | – | – | – | – | – | – | – | – | – | – | – | IC50 ([1]; read-out: IC50 D6): 0.0098 µM; IC90 ([1]; read-out: IC90 D6): 0.0125 µM; IC50 ([2]; read-out: IC50 W2): 0.176 µM; IC90 ([2]; read-out: IC90 W2): 0.383 µM
2 | Cc1cc[n+]2c(c1)-c1cc(CCCCCCCc3cc[n+]4c(c3)-c3cc(C)cc[n+]3[Ru-4]435([n+]4cccc6ccc7ccc[n+]3c7c64)[n+]3cccc4ccc6ccc[n+]5c6c43)cc[n+]1[Ru-4]213([n+]2cccc4ccc5ccc[n+]1c5c42)[n+]1cccc2ccc4ccc[n+]3c4c21.F[P-](F)(F)(F)(F)F.F[P-](F)(F)(F)(F)F.F[P-](F)(F)(F)(F)F.F[P-](F)(F)(F)(F)F [ΔΔ-Rubb7, [{Ru(phen)2}2(μ-bb7)](PF6)4] | 16 µg/mL | 32 µg/mL | 16 µg/mL | 128 µg/mL | 1 | >128 | 32 | 16 | 64 | 64 µg/mL | no significant haemolytic activity | 266 µM | 400 µg/mL | 173 µM | 260 µg/mL | – | –
3 | Cc1ccnc(-c2cc(CCCCCCCCCCc3ccnc(-c4cc(C)ccn4)c3)ccn2)c1.F[P-](F)(F)(F)(F)F.F[P-](F)(F)(F)(F)F.F[P-](F)(F)(F)(F)F.F[P-](F)(F)(F)(F)F.[Ru+2].[Ru+2].c1cnc2c(c1)ccc1cccnc12.c1cnc2c(c1)ccc1cccnc12.c1cnc2c(c1)ccc1cccnc12.c1cnc2c(c1)ccc1cccnc12 [ΔΔ-Rubb10, [{Ru(phen)2}2(μ-bb10)](PF6)4] | 4 µg/mL | 4 µg/mL | 4 µg/mL | 64 µg/mL | 0.5 | 32 | 8 | 4 | 64 | 32 µg/mL | no significant haemolytic activity | 194 µM | 300 µg/mL | 103 µM | 160 µg/mL | – | –
4 | ΔΔ-[{Ru(phen)2}2(μ-bb12)](PF6)4 [ΔΔ-Rubb12] | 1 µg/mL | 1 µg/mL | 2 µg/mL | 16 µg/mL | 0.5 | 8 | 4 | 2 | 8 | 16 µg/mL | – | 86 µM | 135 µg/mL | 57 µM | 90 µg/mL | essentially exhibited no haemolysis | –
5 | ΔΔ-[{Ru(phen)2}2(μ-bb16)](PF6)4 [ΔΔ-Rubb16] | 1 µg/mL | 1 µg/mL | 4 µg/mL | 8 µg/mL | 1 | 8 | 2 | 2 | 8 | 4 µg/mL | – | 48 µM | 78 µg/mL | 25 µM | 40 µg/mL | noticeably increased | haemolytic activity ([12]; at 10 μM, for 8 h): low
